Results taken from PubChem BioAssay AID1963448 (Molecular Pharmacology Branch, DTP, NCI, 2024).
“And” between values parts separate entries of the source, which are not always exact repeats. Identical values can stand only once.

System: 616215-338-R-J1-PDC complex spheroid growth, % test/control
Experiment: Anticancer human tumor 616215-338-R-J1-PDC patient-derived colon adenocarcinoma cell line growth inhibition [Asc]
Conditions: for viability, T/C: stronger effect = lower value
Procedure, shortened: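 Complex spheroids combining tumor cells with HUVEC endothelial cells and human MSCs, at 37 degrees C, 5% CO2; agents tested alone or combined, half-log dilutions from at or near clinical Cmax, or 10 microM if Cmax unknown.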

[1] = curve of first compound, second compound 0.1 µM
[2] = curve of first compound, second compound 0.316 µM
[3] = curve of first compound, second compound 1 µM
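Further: spheroids exposed to agents for seven days before readout.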
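Wherever viability, T/C is given: 100% = DMSO vehicle control viability.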

CCN1C(C(=O)NC23CCC(C(=O)O)(CC2)CC3)C(c2cccc(Cl)c2F)C2(C(=O)Nc3cc(Cl)ccc32)C12CCCCC2 (stereo not drawn) + CNC(C)C(=O)NC1CN(S(=O)(=O)c2cccc(S(=O)(=O)N3CCC4CCC(C(=O)NC(c5ccccc5)c5ccccc5)N4C(=O)C(NC(=O)C(C)NC)C3)c2)CCC2CCC(C(=O)NC(c3ccccc3)c3ccccc3)N2C1=O
IC50 (curve of first compound, second compound 0.00316 µM): 87.4 nM | IC50 (curve of first compound, second compound 0.01 µM): 86.5 nM | IC50 (curve of first compound, second compound 0.0316 µM): 175 nM | IC50 [1]: 93.1 nM | IC50 [2]: 80.6 nM | IC50 [3]: 88.2 nM | viability, T/C (second compound 0.00316 µM, first compound 0.00949 µM): 109% | viability, T/C (second compound 0.00316 µM, first compound 0.03 µM): 108% | viability, T/C (second compound 0.00316 µM, first compound 0.0949 µM): 41.7% | viability, T/C (second compound 0.00316 µM, first compound 0.3 µM): 45.3% | viability, T/C (second compound 0.00316 µM, first compound 0.949 µM): 49.6% | viability, T/C (second compound 0.00316 µM, first compound 3 µM): 45.4% | viability, T/C (second compound 0.01 µM, first compound 0.00949 µM): 108% | viability, T/C (second compound 0.01 µM, first compound 0.03 µM): 104% | viability, T/C (second compound 0.01 µM, first compound 0.0949 µM): 41.6% | viability, T/C (second compound 0.01 µM, first compound 0.3 µM): 44% | viability, T/C (second compound 0.01 µM, first compound 0.949 µM): 54.3% | viability, T/C (second compound 0.01 µM, first compound 3 µM): 41.1% | viability, T/C (second compound 0.0316 µM, first compound 0.00949 µM): 99.2% | viability, T/C (second compound 0.0316 µM, first compound 0.03 µM): 101% | viability, T/C (second compound 0.0316 µM, first compound 0.0949 µM): 53.5% | viability, T/C (second compound 0.0316 µM, first compound 0.3 µM): 50% | viability, T/C (second compound 0.0316 µM, first compound 0.949 µM): 48.7% | viability, T/C (second compound 0.0316 µM, first compound 3 µM): 42% | viability, T/C (second compound 0.1 µM, first compound 0.00949 µM): 111% | viability, T/C (second compound 0.1 µM, first compound 0.03 µM): 78.2% | viability, T/C (second compound 0.1 µM, first compound 0.0949 µM): 51.1% | viability, T/C (second compound 0.1 µM, first compound 0.3 µM): 36.3% | viability, T/C (second compound 0.1 µM, first compound 0.949 µM): 52.8% | viability, T/C (second compound 0.1 µM, first compound 3 µM): 41.1% | viability, T/C (second compound 0.316 µM, first compound 0.00949 µM): 97.5% | viability, T/C (second compound 0.316 µM, first compound 0.03 µM): 89.5% | viability, T/C (second compound 0.316 µM, first compound 0.0949 µM): 43.4% | viability, T/C (second compound 0.316 µM, first compound 0.3 µM): 41.2% | viability, T/C (second compound 0.316 µM, first compound 0.949 µM): 44.9% | viability, T/C (second compound 0.316 µM, first compound 3 µM): 44.1% | viability, T/C (second compound 1 µM, first compound 0.00949 µM): 89.8% | viability, T/C (second compound 1 µM, first compound 0.03 µM): 83.4% | viability, T/C (second compound 1 µM, first compound 0.0949 µM): 47.5% | viability, T/C (second compound 1 µM, first compound 0.3 µM): 43.5% | viability, T/C (second compound 1 µM, first compound 0.949 µM): 60.1% | viability, T/C (second compound 1 µM, first compound 3 µM): 39.5%

C#Cc1c(F)ccc2cc(O)cc(-c3ncc4c(N5CC6CCC(C5)N6)nc(OCC56CCCN5CC(F)C6)nc4c3F)c12 (stereo not drawn)
viability, T/C (compound 0.0316 µM): 105% and 96.2% and 99% | viability, T/C (compound 0.1 µM): 96% and 104% and 102% | viability, T/C (compound 0.316 µM): 104% (2×) and 94.8% | viability, T/C (compound 1 µM): 106% and 113% and 101% | viability, T/C (compound 3.16 µM): 49.3% and 108% and 101% | IC50 (curve of compound): 3120 nM and > 10000 nM

CNC(C)C(=O)NC1CN(S(=O)(=O)c2cccc(S(=O)(=O)N3CCC4CCC(C(=O)NC(c5ccccc5)c5ccccc5)N4C(=O)C(NC(=O)C(C)NC)C3)c2)CCC2CCC(C(=O)NC(c3ccccc3)c3ccccc3)N2C1=O (stereo not drawn) + Cc1c(S(C)(=O)=O)c(-c2cc(F)cc(N3CCN(c4ccc(NS(=O)(=O)c5ccc(NC(CCN6CCC(C(=O)OCCCP(=O)(O)O)CC6)CSc6ccccc6)c(S(=O)(=O)C(F)(F)F)c5)cc4)CC3)c2)c(-c2ccc(Cl)cc2)n1C(C)C
IC50 [1]: > 1000 nM | IC50 [2]: > 1000 nM | IC50 [3]: > 1000 nM | IC50 (curve of first compound, second compound 3.16 µM): < 3.16 nM | IC50 (curve of first compound, second compound 10 µM): < 3.16 nM | viability, T/C (second compound 0.1 µM, first compound 0.00316 µM): 94% | viability, T/C (second compound 0.1 µM, first compound 0.01 µM): 99.3% | viability, T/C (second compound 0.1 µM, first compound 0.0316 µM): 92.2% | viability, T/C (second compound 0.1 µM, first compound 0.1 µM): 94.8% | viability, T/C (second compound 0.1 µM, first compound 0.316 µM): 100% | viability, T/C (second compound 0.1 µM, first compound 1 µM): 97.5% | viability, T/C (second compound 0.316 µM, first compound 0.00316 µM): 96.8% | viability, T/C (second compound 0.316 µM, first compound 0.01 µM): 97.4% | viability, T/C (second compound 0.316 µM, first compound 0.0316 µM): 92% | viability, T/C (second compound 0.316 µM, first compound 0.1 µM): 97% | viability, T/C (second compound 0.316 µM, first compound 0.316 µM): 87.9% | viability, T/C (second compound 0.316 µM, first compound 1 µM): 94.7% | viability, T/C (second compound 1 µM, first compound 0.00316 µM): 73.1% | viability, T/C (second compound 1 µM, first compound 0.01 µM): 76% | viability, T/C (second compound 1 µM, first compound 0.0316 µM): 73.2% | viability, T/C (second compound 1 µM, first compound 0.1 µM): 76% | viability, T/C (second compound 1 µM, first compound 0.316 µM): 69.6% | viability, T/C (second compound 1 µM, first compound 1 µM): 68.7% | viability, T/C (second compound 3.16 µM, first compound 0.00316 µM): 45.5% | viability, T/C (second compound 3.16 µM, first compound 0.01 µM): 40% | viability, T/C (second compound 3.16 µM, first compound 0.0316 µM): 40.1% | viability, T/C (second compound 3.16 µM, first compound 0.1 µM): 39.5% | viability, T/C (second compound 3.16 µM, first compound 0.316 µM): 36.2% | viability, T/C (second compound 3.16 µM, first compound 1 µM): 28.6% | viability, T/C (second compound 10 µM, first compound 0.00316 µM): 26.5% | viability, T/C (second compound 10 µM, first compound 0.01 µM): 23.9% | viability, T/C (second compound 10 µM, first compound 0.0316 µM): 27.9% | viability, T/C (second compound 10 µM, first compound 0.1 µM): 26.4% | viability, T/C (second compound 10 µM, first compound 0.316 µM): 22.4% | viability, T/C (second compound 10 µM, first compound 1 µM): 19.1%
